Data reported in patent publication US4870183A, “Novel amino acid derivatives” (priority 1986, dated 1989).
Where two headings read alike, the source gives them in different places.

What was measured:
human renin = biological target: T1, human renin (Homo sapiens, UniProt P00797); test: Inhibitory effect on human renin-sheep renin substrate reaction system in vitro; type: biochemical
T1 sequence (P00797 67-406): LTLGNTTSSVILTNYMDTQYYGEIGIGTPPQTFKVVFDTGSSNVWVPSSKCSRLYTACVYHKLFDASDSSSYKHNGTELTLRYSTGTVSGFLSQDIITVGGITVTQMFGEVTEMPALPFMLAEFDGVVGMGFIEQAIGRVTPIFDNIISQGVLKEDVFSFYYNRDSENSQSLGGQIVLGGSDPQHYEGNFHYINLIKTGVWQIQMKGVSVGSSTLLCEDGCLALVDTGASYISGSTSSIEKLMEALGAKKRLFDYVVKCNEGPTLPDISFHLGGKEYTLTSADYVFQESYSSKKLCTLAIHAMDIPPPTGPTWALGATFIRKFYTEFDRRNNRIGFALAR
Method: Inhibitory effect on human renin-sheep renin substrate reaction system in vitro
The mixture was incubated for 15 minutes on a water bath at 37° C., and the reaction mixture was allowed to stand for 5 minutes on a water bath at 100° C. to stop the reaction. After cooling, 200 μl of the solution was taken up and the amount of angiotensin I produced by the addition of renin was determined by radioimmunoassay using renin riabead kit (DAINABOT).
The inhibitory effect was calculated by the following equation.
As a control, the same procedure as above was carried out by using 50 μl of dimethyl sulfoxide alone in place of the 50 μl of dimethyl sulfoxide solution containing an amino acid compound of the present invention. [formula]

[1] = biological target: T2, renin in human high renin plasma (Homo sapiens, UniProt P00797); test: Renin inhibitory effect in a human high renin plasma; type: biochemical
T2 construct: from tissue; host or cells: human high renin plasma
T2 sequence (P00797 67-406): T1 sequence (P00797 67-406)
Method: Renin Inhibitory Effect in a Human High Renin Plasma
Two hundred μl of the mixture was placed on an ice bath, at 4° C., and remaining mixture (800 μl) was incubated for 60 minutes at 37° C. on a water bath. Two hundred μl of the incubated remaining mixture was chilled immediately on an ice bath, and the amount (A) of angiotensin I produced was determined by radioimmunoassay using renin riabead kit (DAINABOT).
The amount (B) of angiotensin I in the mixture placed on an ice bath at 4° C. was also determined by radioimmunoassay.
As a control, the same procedure as above was carried out by using 100 μl of dimethyl sulfoxide alone in place of 100 μl of dimethyl sulfoxide solution containing an amino acid compound of the present invention.
The net amount was estimated as the difference between A and B.
The inhibitory effect was calculated by the following equation. [formula]

[2] = human renin-sheep renin substrate system, pH 7.4, 37° C., 15 minutes, read-out: IC50 molar concentration
[3] = human high renin plasma, pH 7.0, 37° C., 60 minutes, read-out: IC50 molar concentration

Row | Compound | IC50 (human renin) [nM] | IC50 [1] [nM] | IC50 (human renin; [2]) [nM] | IC50 [1, 3] [nM]
1 | CC(C)OC(=O)C(O)[C@H](CC1CCCCC1)NC(=O)[C@H](Cc1c[nH]cn1)NC(=O)C(Cc1ccccc1C(F)(F)F)Cc1ccccc1C(F)(F)F (mixture of isomers) [Compound B, (2RS, 3S)-3-{N-[Bis(2-trifluoromethylbenzyl)acetyl]-L-histidyl}amino-4-cyclohexyl-2-hydroxybutyric acid isopropyl ester] | 120 | 1200 | – | –
2 | CC(C)OC(=O)C(O)[C@H](CC1CCCCC1)NC(=O)[C@H](Cc1c[nH]cn1)NC(=O)C(Cc1cccc(F)c1)Cc1cccc(F)c1 (mixture of isomers) [Compound D, (2RS, 3S)-3-{N-[Bis(3-fluorobenzyl)acetyl]-L-histidyl}amino-4-cyclohexyl-2-hydroxybutyric acid isopropyl ester] | 18 | 250 | – | –
3 | CC(C)OC(=O)C(O)[C@H](CC1CCCCC1)NC(=O)[C@H](Cc1c[nH]cn1)NC(=O)C(Cc1ccccc1)Cc1ccccc1 (mixture of isomers) [Compound E, (2RS, 3S)-3-[N-(dibenzylacetyl)-L-histidyl}amino-4-cyclohexyl-2-hydroxybutyric acid isopropyl ester] | 52 | 260 | – | –
4 | Cc1cccc(C)c1CC(Cc1c(C)cccc1C)C(=O)N[C@@H](Cc1c[nH]cn1)C(=O)N[C@@H](CC1CCCCC1)C(O)C(=O)OC(C)C (mixture of isomers) [Compound G, (2RS, 3S)-3-{N-[Bis(2,6-dimethylbenzyl)acetyl]-L-histidyl}amino-4-cyclohexyl-2-hydroxybutyric acid isopropyl ester] | 900 | 3300 | – | –
5 | CC(C)OC(=O)C(O)[C@H](CC1CCCCC1)NC(=O)[C@H](Cc1c[nH]cn1)NC(=O)C(Cc1ccccc1Br)Cc1ccccc1Br (mixture of isomers) [Compound I, (2RS, 3S)-3-{N-[Bis(2-bromobenzyl)acetyl]-L-histidyl}amino-4-cyclohexyl-2-hydroxybutyric acid isopropyl ester] | 18 | 430 | – | –
6 | CC(C)OC(=O)C(O)[C@H](CC1CCCCC1)NC(=O)[C@H](Cc1c[nH]cn1)NC(=O)C(Cc1ccc(Cl)cc1)Cc1ccc(Cl)cc1 (mixture of isomers) [Compound J, (2RS, 3S)-3-{N-[Bis(4-chlorobenzyl)acetyl]-L-histidyl}amino-4-cyclohexyl-2-hydroxybutyric acid isopropyl ester] | 470 | 5900 | – | –
7 | O=C(N[C@@H](Cc1c[nH]cn1)C(=O)N[C@@H](CC1CCCCC1)C(O)C(=O)OC1CCCC1)C(Cc1ccccc1)Cc1ccccc1 (mixture of isomers) [Compound K, (2RS, 3S)-3-[N-(dibenzylacetyl)-L-histidyl]amino-4-cyclohexyl-2-hydroxybutyric acid cyclopentyl ester] | 18 | 280 | – | –
8 | CC(C)OC(=O)C(O)[C@H](CC1CCCCC1)NC(=O)[C@H](Cc1c[nH]cn1)NC(=O)C(Cc1cccc2ccccc12)Cc1cccc2ccccc12 (mixture of isomers) [Compound L, (2RS, 3S)-3-{N-[Bis(1-naphthylmethyl)acetyl]-L-histidyl}amino-4-cyclohexyl-2-hydroxybutyric acid isopropyl ester] | 49 | 430 | – | –
9 | Cc1cccc(CC(Cc2cccc(C)c2C)C(=O)N[C@@H](Cc2c[nH]cn2)C(=O)N[C@@H](CC2CCCCC2)C(O)C(=O)OC(C)C)c1C (mixture of isomers) [Compound M, (2RS, 3S)-3-{N-[Bis(2,3-dimethylbenzyl)acetyl]-L-histidyl}amino-4-cyclohexyl-2-hydroxybutyric acid isopropyl ester] | 77 | 860 | – | –
10 | O=C(N[C@@H](Cc1c[nH]cn1)C(=O)N[C@@H](CC1CCCCC1)C(O)C(=O)OC1CCCC1)C(Cc1ccccc1F)Cc1ccccc1F (mixture of isomers) [Compound N, (2RS, 3S)-3-{N-[Bis(2-fluorobenzyl)acetyl]-L-histidyl}amino-4-cyclohexyl-2-hydroxybutyric acid cyclopentyl ester] | 29 | 230 | – | –
11 | Cc1cccc(CC(Cc2cccc(C)c2)C(=O)N[C@@H](Cc2c[nH]cn2)C(=O)N[C@@H](CC2CCCCC2)C(O)C(=O)OC(C)C)c1 (mixture of isomers) [Compound Q, (2RS, 3S)-3-{N-[Bis(3-methylbenzyl)acetyl]-L-histidyl}amino-4-cyclohexyl-2-hydroxybutyric acid isopropyl ester] | 60 | 540 | – | –
12 | COc1ccccc1CC(Cc1ccccc1OC)C(=O)N[C@@H](Cc1c[nH]cn1)C(=O)N[C@@H](CC1CCCCC1)C(O)C(=O)OC(C)C (mixture of isomers) [Compound R, (2RS, 3S)-3-{N-[Bis(2-methoxybenzyl)acetyl]-L-histidyl}amino-4-cyclohexyl-2-hydroxybutyric acid isopropyl ester] | 170 | 360 | – | –
13 | CC(C)OC(=O)C(O)[C@H](CC1CCCCC1)NC(=O)[C@H](Cc1c[nH]cn1)NC(=O)C(Cc1ccccc1C#N)Cc1ccccc1C#N (mixture of isomers) [Compound T, (2RS, 3S)-3-{N-[Bis(2-cyanobenzyl)acetyl]-L-histidyl}amino-4-cyclohexyl-2-hydroxybutyric acid isopropyl ester] | 190 | 280 | – | –
14 | CC(C)OC(=O)C(O)[C@H](CC1CCCCC1)NC(=O)[C@H](Cc1c[nH]cn1)NC(=O)C(Cc1ccc2c(c1)OCO2)Cc1ccc2c(c1)OCO2 (mixture of isomers) [Compound V, (2RS, 3S)-3-{N-[Bis(3,4-methylenedioxybenzyl)acetyl]-L-histidyl}amino-4-cyclohexyl-2-hydroxybutyric acid isopropyl ester] | 910 | 2600 | – | –
15 | Cc1ccccc1CC(Cc1ccccc1C)C(=O)N[C@@H](Cc1c[nH]cn1)C(=O)N[C@@H](CC1CCCCC1)C(O)C(=O)OC(C)C (mixture of isomers) [Compound W, (2RS, 3S)-3-{N-[Bis(2-methylbenzyl)-acetyl]-L-histidyl}amino-4-cyclohexyl-2-hydroxybutyric acid isopropyl ester] | 58 | 280 | – | –
16 | CC(C)CNC(=O)C(O)[C@H](CC1CCCCC1)NC(=O)[C@H](Cc1c[nH]cn1)NC(=O)C(Cc1cccc2c1OCO2)Cc1cccc2c1OCO2 (mixture of isomers) [Compound Y, (2RS, 3S)-3-{N-[Bis(2,3-methylenedioxybenzyl)acetyl]-L-histidyl}amino-4-cyclohexyl-2-hydroxybutyric acid isobutyl amide] | 1800 | 3400 | – | –
17 | CC(C)OC(=O)C(O)[C@H](CC1CCCCC1)NC(=O)[C@H](Cc1c[nH]cn1)NC(=O)C(Cc1ccc(F)cc1)Cc1ccc(F)cc1 (mixture of isomers) [Compound O, (2RS, 3S)-3-{N-[Bis(4-fouorobenzyl)acetyl]-L-histidyl}amino-4-cyclohexyl-2-hydroxybutyric acid isopropyl ester] | – | – | 68 | 1200
18 | CC(C)OC(=O)C(O)[C@H](CC1CCCCC1)NC(=O)[C@H](Cc1c[nH]cn1)NC(=O)C(Cc1ccccc1O)Cc1ccccc1O (stereo partly drawn) [Compound C, (2RS 3S)-3-{N-[Bis(2-hydroxybenzyl)acetyl]-L-histidyl}amino-4-cyclohexyl-2-hydroxybutyric acid isopropyl ester] | – | – | 180 | 400
19 | O=C(N[C@@H](Cc1cnc[nH]1)C(=O)N[C@@H](CC1CCCCC1)C(O)C(=O)OC(CF)CF)C(Cc1ccccc1)Cc1ccccc1 (stereo partly drawn) [Compound P] | 19 | 130 | – | –
20 | (2RS, 3)-3-{N-[Bis(2-fluorobenzyl)acetyl]-L-histidyl}amino-4-cyclohexyl ester [Compound S] | – | – | 62 | 430
21 | (2RS, 3S)-3-{N-[Bis(2-chlorobenzyl)acetyl]-L-histidyl}amino-4-cyclohexyl-2-hydroxybutyric acid butyric acid isopropyl ester [Compound U] | – | – | 63 | 430
